From patent publication US20140079836A1, “METHODS AND COMPOSITIONS FOR ALTERING HEALTH, WELLBEING, AND LIFESPAN” (LifeSpan Extension, LLC, priority 2008, published 2014)
Several values for one entry are separate records, joined by “and”; a condition that tells them apart may be missing. Equal values may be shown once.

System: genes involved in longevity (Array 1)
Test: Custom RT-PCR microarray (Array 1) gene expression in skin fibroblasts, UVB/UVA1
Format: cell-based, human
Experimental: Seeding of cells: On Day 1, each cell culture was seeded into 6 well cluster dishes at ˜1.5×10^5 cells in 4 mls medium per well. Three wells were seeded per test condition or control.
Experimental phase: On Day 3, wells were washed 1× with 2 mls medium, fed back 2 mls medium without fetal bovine serum and preincubated for 30-60 minutes before challenge with test or control conditions. After the preincubation, medium was aspirated from the wells and 2.5 mls of test or control condition in medium with 1% fetal bovine serum was pipetted into the appropriate wells.
(3) UVA1, UVB exposed and unexposed cells without test condition were used as controls. The experimental phase ended at 24 hours post UV exposure. Cells from each test and control parameter were then prepped for RNA isolation as described below.
UVB/UVA1 exposure: Cells exposed to UV received 200 mJ/cm^2 UVB/1 MED UVA1 using Thermo Oriel solar simulator model SP66923-3056. Cells were exposed from the bottom of the culture dish. The UV dose delivered to the cells was adjusted for interference from the plastic in the culture dish.
Preparation of RNA: The RNA was isolated using the Qiagen RNEasy Plus Mini Kit according to the manufacturer's protocol which can be found on the World Wilde Web at qiagen.com/literature/Defaultaspx?Term=&Language=EN&LiteratureType=4& ProductCategory=10162. The RNA was quantified and examined for purity using the 260/280 nm read method in a μ Quant spectrophotometer before use in the array.
Creation and Performance of a Custom Microarray (“Array 1”): Through the Custom Array design service of Superarray Bioscience Corporation, a 96 well RT-PCR microarray (“Array 1”) was developed to illustrate genetic responses in cells treated as above for specific genes involved in longevity as well as the relevant quality controls. The array was performed in compliance with manufacturer's guidelines and by recommended manufacturer's protocol as can be found on the World Wilde Web at superarray.com/Manual/perarrayplate.pdf
Custom Microarray Results: The results from the microarrays were determined using the delta CT method which uses comparisons of control genes and threshold cycles of genes of interest to generate relative expression values. The full set of experimental conditions was cross referenced and the data is provided herewith in DATA TABLE 3.
Preparation of RNA: The RNA was isolated using the Qiagen RNEasy Plus Mini Kit according to the manufacturer's protocol which can be found on the World Wide Web at qiagen.com/literature/Default. aspx?Term=&Language=EN&LiteratureType=4&ProductCategory=10162.
The RNA was quantified and examined for purity using the 260/280 nm read method in a μ Quant spectrophotometer before use in the array.
Creation and Performance of the Custom Microarray: Through the Custom Array design service of Superarray Bioscience Corporation, a 96 well RT-PCR Microarray was developed to illustrate genetic responses in cells treated as above for specific genes involved in longevity as well as the relevant quality controls. The array was performed in compliance with manufacturer's guidelines and by recommended manufacturer's protocol as can be found on the World Wide Web at superarray.com/Manual/perarrayplate.pdf.
Custom Microarray Results: The results from the microarrays were determined using the delta CT method which uses comparisons of control genes and threshold cycles of genes of interest to generate relative expression values. The full set of experimental conditions was cross referenced and the data is provided herewith in DATA TABLE 4.
Custom Microarray Results: The results from the microarrays were determined using the delta CT method which uses comparisons of control genes and threshold cycles of genes of interest to generate relative expression values. The full set of experimental conditions was cross referenced and the data is provided herewith in DATA TABLE 5. […]

[1] = donor four cell line, UVB, agent 4 hr incubation
[2] = donor four cell line, UVB, agent continuous incubation
[3] = donor three idebenone + UVB 4 hr Incubation
[4] = donor three idebenone + UVB Continuous Incubation
[5] = donor three idebenone + UVB vs. Green tea + UVB 4 hr Incubation
[6] = donor three vs. donor two idebenone + UVB 4 hr Incubation
[7] = donor three vs. donor two idebenone + UVB Continuous Incubation

Which results are given for `COC1=C(OC)C(=O)C(CCCCCCCCCCO)=C(C)C1=O` [Idebenone, 6-(10-hydroxydecyl)-2,3-dimethoxy-5-methyl-1,4-benzoquin-one]?
IFI44 expression [1]: 2.63; NADSYN1 expression [1]: 2.21; NFKB1 expression [1]: 3.24; PARP1 Expression [1]: 4.27; TERT expression [1]: 8.54; IFI44 expression [2]: 2.98; TERT expression [2]: 4.36; TERT expression (donor one cell line, UVB, agent continuous incubation): 8.50; ACE expression fold change [3]: 2.29; ACTB expression fold change [3]: −2.01; APOE expression fold change [3]: −1.32; BAX expression fold change [3]: 1.41; BCL2 expression fold change [3]: 4.13; CASP2 expression fold change [3]: 1.31; CASP9 expression fold change [3]: 2.06; CCL4L1 expression fold change [3]: 9.82; CLK1 expression fold change [3]: 1.41; COX1 expression fold change [3]: −1.11; CREBBP expression fold change [3]: −1.32; CYP19A1 expression fold change [3]: 6.94; DDC expression fold change [3]: 4.74; GAPDH expression fold change [3]: −1.04; GH1 expression fold change [3]: 3.35; HIGX1A fold change [3]: 1.93; HLA-DRA expression fold change [3]: 4.27; HPRT1 expression fold change [3]: 3.47; HSPA1A expression fold change [3]: 1.68; HSPA1B expression fold change [3]: 1.99; HSPA1L expression fold change [3]: −1.42; IFI44 expression fold change [3]: 2.63; IGF1 expression fold change [3]: 4.13; IGF2 expression fold change [3]: −1.24; IL1A expression fold change [3]: 2.54; IL6 expression fold change [3]: 1.27; IL10 expression fold change [3]: 1.46; KRAS expression fold change [3]: 1.27; MAPK14 expression fold change [3]: 1.46; NADSYN1 expression fold change [3]: 2.21; NFKB1 expression fold change [3]: 3.24; NOS2A expression fold change [3]: 16.51; PARP1 expression fold change [3]: 4.27; PARP2 expression fold change [3]: 3.72; PPARG expression fold change [3]: 1.99; PPC fold change [3]: 1.07 and 1.23; PTGS2 expression fold change [3]: 2.63; RTC fold change [3]: 3.13 and 4.74; SHC1 expression fold change [3]: 1.19; SIRT1 expression fold change [3]: 1.41; SOD1 expression fold change [3]: 1.41; SOD2 expression fold change [3]: 1.07; TEP1 expression fold change [3]: 1.23; TERT expression fold change [3]: 8.54; TNF expression fold change [3]: −1.19; TP53 expression fold change [3]: −1.15; ACE expression fold change [4]: 2.34; ACTB expression fold change [4]: −3.93; APOE expression fold change [4]: 1.49; BAX expression fold change [4]: 2.26; BCL2 expression fold change [4]: 7.09; CASP2 expression fold change [4]: 1.09; CASP9 expression fold change [4]: 5.19; CCL4L1 expression fold change [4]: 10.02; CLK1 expression fold change [4]: 1.71; COX1 expression fold change [4]: 1.05; CREBBP expression fold change [4]: −1.21; CYP19A1 expression fold change [4]: 5.56; DDC expression fold change [4]: 4.84; GAPDH expression fold change [4]: −1.83; GH1 expression fold change [4]: 2.18; HIGX1A fold change [4]: 1.71; HLA-DRA expression fold change [4]: 3.93; HPRT1 expression fold change [4]: 1.83; HSPA1A expression fold change [4]: 1.34; HSPA1B expression fold change [4]: 1.71; HSPA1L expression fold change [4]: −5.37; IFI44 expression fold change [4]: 2.98; IGF1 expression fold change [4]: 3.42; IGF2 expression fold change [4]: −1.09; IL1A expression fold change [4]: 1.97; IL6 expression fold change [4]: −1.83; IL10 expression fold change [4]: 1.13; KRAS expression fold change [4]: 1.90; MAPK14 expression fold change [4]: 1.65; NADSYN1 expression fold change [4]: 1.44; NFKB1 expression fold change [4]: 2.34; NOS2A expression fold change [4]: 3.80; PARP1 expression fold change [4]: 1.65; PARP2 expression fold change [4]: 3.42; PPARG expression fold change [4]: 3.19; PPC fold change [4]: 1.25 and 1.21; PTGS2 expression fold change [4]: 1.83; SHC1 expression fold change [4]: −1.49; SIRT1 expression fold change [4]: 1.77; SOD1 expression fold change [4]: −1.71; SOD2 expression fold change [4]: 1.17; TEP1 expression fold change [4]: 1.13; TERT expression fold change [4]: 4.36; TNF expression fold change [4]: −1.09; TP53 expression fold change [4]: 1.21; ACE expression fold change [5]: −1.11; ACTB expression fold change [5]: −1.57; APOE expression fold change [5]: 1.41; BAX expression fold change [5]: −2.23; BCL2 expression fold change [5]: −1.15; CASP2 expression fold change [5]: −2.47; CASP9 expression fold change [5]: −1.94; CCL4L1 expression fold change [5]: 9.48; CLK1 expression fold change [5]: −1.11; COX1 expression fold change [5]: −1.81; CREBBP expression fold change [5]: −1.00; CYP19A1 expression fold change [5]: 9.48; DDC expression fold change [5]: 42.08; GAPDH expression fold change [5]: −1.57; GH1 expression fold change [5]: 16.51; HIGX1A fold change [5]: 17.09; HLA-DRA expression fold change [5]: 18.96; HPRT1 expression fold change [5]: 1.41; HSPA1A expression fold change [5]: −1.87; HSPA1B expression fold change [5]: −2.08; HSPA1L expression fold change [5]: 1.80; IFI44 expression fold change [5]: −1.28; IGF1 expression fold change [5]: 8.85; IGF2 expression fold change [5]: −1.15; IL1A expression fold change [5]: 7.70; IL6 expression fold change [5]: −1.04; IL10 expression fold change [5]: 4.74; KRAS expression fold change [5]: −1.69; MAPK14 expression fold change [5]: −1.63; NADSYN1 expression fold change [5]: −1.63; NFKB1 expression fold change [5]: −1.04; NOS2A expression fold change [5]: 34.18; PARP1 expression fold change [5]: −1.57; PARP2 expression fold change [5]: 7.44; PPARG expression fold change [5]: 1.74; PTGS2 expression fold change [5]: 2.14; SHC1 expression fold change [5]: −1.11; SIRT1 expression fold change [5]: −1.15; SOD1 expression fold change [5]: −1.32; SOD2 expression fold change [5]: −1.24; TEP1 expression fold change [5]: −1.00; TERT expression fold change [5]: 7.97; TNF expression fold change [5]: 7.44; TP53 expression fold change [5]: −1.32; ACE expression fold change [6]: 1.16; ACTB expression fold change [6]: 1.43; APOE expression fold change [6]: −1.06; BAX expression fold change [6]: 1.95; BCL2 expression fold change [6]: 1.76; CASP2 expression fold change [6]: 1.33; CASP9 expression fold change [6]: 1.58; CCL4L1 expression fold change [6]: 1.08; CLK1 expression fold change [6]: −1.22; COX1 expression fold change [6]: 1.12; CREBBP expression fold change [6]: 1.70; CYP19A1 expression fold change [6]: 1.01; DDC expression fold change [6]: 1.08; GAPDH expression fold change [6]: 1.16; GH1 expression fold change [6]: −1.06; HIGX1A fold change [6]: −1.50; HLA-DRA expression fold change [6]: 1.38; HPRT1 expression fold change [6]: 1.38; HSPA1A expression fold change [6]: 2.16; HSPA1B expression fold change [6]: 2.32; HSPA1L expression fold change [6]: −1.14; IFI44 expression fold change [6]: 1.53; IGF1 expression fold change [6]: −1.79; IGF2 expression fold change [6]: −1.03; IL1A expression fold change [6]: −1.40; IL6 expression fold change [6]: −6.01; IL10 expression fold change [6]: 1.76; KRAS expression fold change [6]: 1.76; MAPK14 expression fold change [6]: 1.48; NADSYN1 expression fold change [6]: 1.08; NFKB1 expression fold change [6]: 1.01; NOS2A expression fold change [6]: −1.56; PARP1 expression fold change [6]: 2.32; PARP2 expression fold change [6]: 1.16; PPARG expression fold change [6]: 1.29; PTGS2 expression fold change [6]: 2.95; SHC1 expression fold change [6]: 1.20; SIRT1 expression fold change [6]: 1.53; SOD1 expression fold change [6]: 1.24; SOD2 expression fold change [6]: −1.35; TEP1 expression fold change [6]: 1.76; TERT expression fold change [6]: −1.14; TNF expression fold change [6]: 1.95; TP53 expression fold change [6]: −1.31; ACE expression fold change [7]: 1.40; ACTB expression fold change [7]: 4.88; APOE expression fold change [7]: −2.48; BAX expression fold change [7]: −1.64; BCL2 expression fold change [7]: −1.53; CASP2 expression fold change [7]: −1.38; CASP9 expression fold change [7]: −1.88; CCL4L1 expression fold change [7]: −2.09; CLK1 expression fold change [7]: −1.04; COX1 expression fold change [7]: −2.32; CREBBP expression fold change [7]: 1.14; CYP19A1 expression fold change [7]: −2.48; DDC expression fold change [7]: −1.58; GAPDH expression fold change [7]: 2.13; GH1 expression fold change [7]: 1.40; HIGX1A fold change [7]: −2.16; HLA-DRA expression fold change [7]: 1.31; HPRT1 expression fold change [7]: 2.20
